Measurements taken from patent US6569865B2, “Spiro 1-azabicyclo[2.2.2]octane-3,2′(3′h)-furo[2,3-b]pyridine” (priority 2001, dated 2003).

How the values were obtained:
α7 nAChR = α7 nAChR (Rattus norvegicus, UniProt Q05941); experiment: Test A: 125I-α-bungarotoxin binding to rat hippocampal membranes (affinity at α7 nAChR subtype)
Description: Test A—Assay for Affinity at α7 nAChR Subtype
125I-α-Bungarotoxin (BTX) binding to rat hippocampal membranes. Rat hippocampi were homogenized in 20 volumes of cold homogenization buffer (HB: concentrations of constituents (mM): tris(hydroxymethyl)aminomethane 50; MgCl2 1; NaCl 120; KCl 5: pH 7.4). The homogenate was centrifuged for 5 minutes at 1000 g, the supernatant was saved and the pellet re-extracted. The pooled supernatants were centrifuged for 20 minutes at 12000 g, washed, and resuspended in HB. Membranes (30-80 μg) were incubated with 5 nM [^125I]α-BTX, 1 mg/mL BSA (bovine serum albumin), test drug, and either 2 mM CaCl2 or 0.5 mM EGTA [ethylene glycol-bis(β-aminoethylether)] for 2 hours at 21° C., and then filtered and washed 4 times over Whatman glass fibre filters (thickness C) using a Brandel cell harvester. […]
IC50 values and pseudo Hill coefficients (nH) were calculated using the non-linear curve-fitting program ALLFIT (DeLean A, Munson P J and Rodbard D (1977) Am. J. Physiol., 235:E97-E102). […]
where a value of n=1 was used whenever nH<1.5 and a value of n=2 was used when nH≧1.5. […] Ki values were determined using 6 or more drug concentrations. […]

α4 nAChR = α4 nAChR (Rattus norvegicus, UniProt P09483+P12390); assay type: binding
Chain of α4 nAChR (P09483 31-630): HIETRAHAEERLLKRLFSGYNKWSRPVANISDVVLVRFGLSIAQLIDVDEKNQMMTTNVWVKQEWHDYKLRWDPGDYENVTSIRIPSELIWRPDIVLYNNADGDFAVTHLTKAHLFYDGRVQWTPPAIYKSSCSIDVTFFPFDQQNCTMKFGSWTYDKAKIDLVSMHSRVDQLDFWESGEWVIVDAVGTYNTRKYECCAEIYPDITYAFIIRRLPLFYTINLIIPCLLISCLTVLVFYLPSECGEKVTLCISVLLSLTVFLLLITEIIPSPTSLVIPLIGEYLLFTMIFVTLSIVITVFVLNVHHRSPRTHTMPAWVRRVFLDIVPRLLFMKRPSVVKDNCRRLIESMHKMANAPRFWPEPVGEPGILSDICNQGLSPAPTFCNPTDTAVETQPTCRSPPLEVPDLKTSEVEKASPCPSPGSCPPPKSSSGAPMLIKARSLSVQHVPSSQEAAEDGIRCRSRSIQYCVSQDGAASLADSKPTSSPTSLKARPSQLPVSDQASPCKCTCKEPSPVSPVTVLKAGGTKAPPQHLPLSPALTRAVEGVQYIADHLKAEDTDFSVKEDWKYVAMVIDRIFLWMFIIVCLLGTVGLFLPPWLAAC
Chain of α4 nAChR (P12390 25-500): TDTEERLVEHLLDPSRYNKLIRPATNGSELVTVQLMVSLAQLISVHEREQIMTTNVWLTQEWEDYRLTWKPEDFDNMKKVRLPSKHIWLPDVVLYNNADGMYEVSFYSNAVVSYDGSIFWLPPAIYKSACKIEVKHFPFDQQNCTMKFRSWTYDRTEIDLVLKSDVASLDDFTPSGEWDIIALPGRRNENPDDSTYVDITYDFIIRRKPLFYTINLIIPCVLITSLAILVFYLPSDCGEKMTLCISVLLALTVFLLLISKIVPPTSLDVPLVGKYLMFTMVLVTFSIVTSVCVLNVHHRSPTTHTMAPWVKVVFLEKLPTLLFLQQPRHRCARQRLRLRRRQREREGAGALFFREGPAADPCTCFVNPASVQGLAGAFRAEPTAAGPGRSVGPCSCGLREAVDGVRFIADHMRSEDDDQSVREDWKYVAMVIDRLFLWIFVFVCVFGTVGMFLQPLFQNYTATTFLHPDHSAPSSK
Description: Binding Data Analysis for Tests A and B
Ki values were determined using 6 or more drug concentrations.

Chain of α7 nAChR (Q05941 23-502): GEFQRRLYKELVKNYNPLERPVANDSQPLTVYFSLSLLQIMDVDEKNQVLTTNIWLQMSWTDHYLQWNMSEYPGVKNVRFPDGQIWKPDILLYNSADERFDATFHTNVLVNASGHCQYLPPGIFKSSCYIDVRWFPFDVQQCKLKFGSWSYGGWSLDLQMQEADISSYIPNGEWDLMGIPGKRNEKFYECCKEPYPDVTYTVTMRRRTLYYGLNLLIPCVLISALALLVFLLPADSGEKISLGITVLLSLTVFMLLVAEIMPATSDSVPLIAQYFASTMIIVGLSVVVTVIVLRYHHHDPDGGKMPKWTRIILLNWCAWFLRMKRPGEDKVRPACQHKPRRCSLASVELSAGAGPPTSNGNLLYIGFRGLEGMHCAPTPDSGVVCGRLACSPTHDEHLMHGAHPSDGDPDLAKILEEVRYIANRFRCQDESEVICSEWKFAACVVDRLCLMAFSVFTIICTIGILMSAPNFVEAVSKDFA

Row | Compound | Kd (α7 nAChR; read-out: KD of radioligand from saturation curves (one site model)) | Ki (α7 nAChR; 125I-α-BTX displacement, rat hippocampal membranes) | nAChR Binding Selectivity (Ratio α4 Ki/α7 Ki) (α4 nAChR)
1 | 125I-α-Bungarotoxin [Compound 125I-α-BTX, reference compound] | 1.67 nM | – | –
2 | c1cc(-c2cnc3c(c2)C[C@@]2(CN4CCC2CC4)O3)co1 [Compound 3, (2′R)-5′-(3-furanyl)spiro[1-azabicyclo[2.2.2]octane-3,2′(3′H)-furo[2,3-b]pyridine]] | – | 0.033 nM | 88000
